According to patent publication US20230373989A1, “N-PHENYLAMINOCARBONYL PYRIDINO-, PYRIMIDINO AND BENZO-TROPANES AS MODULATORS OF GPR65” (PATHIOS THERAPEUTICS LIMITED, priority 2020, published 2023):

molecular target: T1, human recombinant GPR65 (Homo sapiens, UniProt Q8IYL9); experiment: Human GPR65 cAMP HTRF antagonist assay; assay type: cell-based; conditions: not given
T1 construct: host or cells: 1321N1 human astrocytoma cells (1321N1-hrGPR65)
Source text: In one preferred embodiment, the compound prevents the increase in cytoplasmic cAMP levels expected following GPR65 activation at acidic pH. This prevention of cAMP accumulation in turn prevents downstream signalling through ICER, as described above. The “Human GPR65 cyclic adenosine monophosphate (cAMP) Homogeneous Time Resolved Fluorescence (HTRF) antagonist assay”, or simply “cAMP assay”, as described in the accompanying examples, can be used to measure the potency of GPR65 modulators, which is expressed as the concentration of compound required to reduce the increase in cAMP concentration upon GPR65 activation by 50% (i.e. an IC50).
Human GPR65 Cyclic Adenosine Monophosphate (cAMP) Homogeneous Time Resolved Fluorescence (HTRF) Antagonist Assay Procedure
IC50 data was obtained by the following procedure:
1321N1 human astrocytoma cells stably expressing human recombinant GPR65 (1321N1-hrGPR65 cells, EuroscreenFast) were cultured according to the vendor's instructions.
Compounds were tested for their ability to antagonise GPR65, through measuring the concentration of cytoplasmic cAMP following treatment of the cells at a pH of 7.2 to activate GPR65 signalling and addition of the compound to be tested. The extent to which the expected rise in cAMP concentration upon GPR65 activation was suppressed by the added compound is indicative of its potency. The assay was carried out according to EuroscreenFast assay methodology as follows.
On the day of the assay, test compounds were added to 384-well, low volume, white microtiter plates by acoustic dispensing. KRH buffer (5 mM KCl, 1.25 mM MgSO4, 124 mM NaCl, 25 mM HEPES, 13.3 mM Glucose, 1.25 mM KH2PO4 and 1.45 mM CaCl2) was adjusted to pH 6.5, pH 7.6 and pH 8.4 by adding NaOH. 1321N1-hGPR65 cells were rapidly thawed and diluted in KRH, pH 7.6 prior to centrifugation at 300×g for 5 min and resuspension in assay buffer (KRH, pH 7.6, supplemented with 1 mM 3-isobutyl-1-methylxanthine (IBMX) and 200 μM ethylenediaminetetraacetic acid (EDTA)). Cells were added to assay plates at a density of 2,000 cells per well in a volume of 5 μl. Assay plates were briefly centrifuged at 100×g and then incubated at room temperature for 30 min. Cells were stimulated by the addition of 5 μL KRH, pH 6.5, to achieve an assay pH of 7.2, while control wells received 5 μl KRH, pH 8.4 to achieve an assay pH of 7.9. Assay plates were briefly centrifuged at 100×g and then incubated at room temperature for 30 min.
Accumulation of cAMP was detected by cAMP HTRF kit (Cisbio). d2-labeled cAMP and cryptate-labeled anti-cAMP antibody in Lysis and Detection Buffer (Cisbio) were added to assay plates, and the plates were incubated at room temperature for 1 h. HTRF measurements were performed using a Pherastar FSX instrument. Acceptor and donor emission signals were measured at 665 nm and 620 nm, respectively, and HTRF ratios were calculated as signal665 nm/signal620 nm×104. Data were normalised to high and low control values and fitted with 4-parameter logistic regression to determine hGPR65 IC50 values for the test compounds, which are shown in Table 1.

T1 sequence (Q8IYL9 whole entry): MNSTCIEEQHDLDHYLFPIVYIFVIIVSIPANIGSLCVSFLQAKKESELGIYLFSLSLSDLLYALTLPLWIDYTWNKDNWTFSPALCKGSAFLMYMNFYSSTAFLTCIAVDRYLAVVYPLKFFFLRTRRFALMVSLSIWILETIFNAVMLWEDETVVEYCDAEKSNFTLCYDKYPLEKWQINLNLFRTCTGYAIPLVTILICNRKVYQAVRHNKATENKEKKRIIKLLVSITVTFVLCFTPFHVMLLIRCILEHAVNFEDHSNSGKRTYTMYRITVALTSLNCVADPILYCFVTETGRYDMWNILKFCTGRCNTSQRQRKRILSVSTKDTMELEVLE

Row | Compound | IC50 [µM]
1 | O=C(Nc1ccc(Cl)c(Cl)c1)N1[C@H]2CC[C@@H]1c1c[nH]c(=O)cc1C2 [Compound 103, (6S,9R)-N-(3,4-Dichlorophenyl)-3-oxo-3,5,6,7,8,9-hexahydro-2H-6,9-epiminocyclohepta[c]pyridine-10-carboxamide] | < 0.5
2 | O=C(Nc1cccc(Br)c1)N1C2CCC1c1ccnc(F)c1C2 (racemic) [Compound 170, (±)-N-(3-Bromophenyl)-1-fluoro-6,7,8,9-tetrahydro-5H-5,8-epiminocyclohepta[c]pyridine-10-carboxamide] | < 0.5
3 | O=C(Nc1ccc(-c2ccccc2)cc1)N1C2CCC1c1ccnc(F)c1C2 (racemic) [Compound 158, (±)-N-([1,1′-Biphenyl]-4-yl)-1-fluoro-6,7,8,9-tetrahydro-5H-5,8-epiminocyclohepta[c]pyridine-10-carboxamide] | < 0.5
4 | N#Cc1ccc(NC(=O)N2C3CCC2c2ccnc(F)c2C3)cc1C(F)(F)F (racemic) [Compound 163, (±)-N-(4-Cyano-3-(trifluoromethyl)phenyl)-1-fluoro-6,7,8,9-tetrahydro-5H-5,8-epiminocyclohepta[c]pyridine-10-carboxamide] | < 0.5
5 | O=C(Nc1cc(Cl)c(C(F)(F)F)cc1F)N1[C@H]2CC[C@@H]1c1ccc(F)nc1C2 [Compound 196, (5R,8S)-N-(5-Chloro-2-fluoro-4-(trifluoromethyl)phenyl)-2-fluoro-6,7,8,9-tetrahydro-5H-5,8-epiminocyclohepta[b]pyridine-10-carboxamide] | < 0.5
6 | O=C(Nc1ccc(C(F)(F)F)cc1F)N1[C@H]2CC[C@@H]1c1ccnc(F)c1C2 [Compound 120, (5R,8S)-1-Fluoro-N-(2-fluoro-4-(trifluoromethyl)phenyl)-6,7,8,9-tetrahydro-5H-5,8-epiminocyclohepta[c]pyridine-10-carboxamide] | < 0.5
7 | O=C(Nc1ccc(OC(F)(F)F)c(Cl)c1)N1[C@H]2CC[C@@H]1c1ccnc(F)c1C2 [Compound 124, (5R,8S)-N-(3-Chloro-4-(trifluoromethoxy)phenyl)-1-fluoro-6,7,8,9-tetrahydro-5H-5,8-epiminocyclohepta[c]pyridine-10-carboxamide] | < 0.5
8 | O=C(Nc1ccc(C(F)(F)F)c(Cl)c1)N1C2CCC1c1ccc(F)cc1C2 (racemic) [Compound 75, (±)-N-(3-Chloro-4-(trifluoromethyl)phenyl)-2-fluoro-6,7,8,9-tetrahydro-5H-5,8-epiminobenzo[7]annulene-10-carboxamide] | < 0.5
9 | O=C(Nc1cc(Cl)c(Cl)cc1O)N1[C@H]2CC[C@@H]1c1ccnc(F)c1C2 [Compound 149, (5R,8S)—N-(4,5-Dichloro-2-hydroxyphenyl)-1-fluoro-6,7,8,9-tetrahydro-5H-5,8-epiminocyclohepta[c]pyridine-10-carboxamide] | < 0.5
10 | O=C(Nc1cc(Cl)c(C(F)(F)F)cc1F)N1C2CCC1c1ccc(=O)[nH]c1C2 (racemic) [Compound 189, (±)-N-(5-Chloro-2-fluoro-4-(trifluoromethyl)phenyl)-2-oxo-2,5,6,7,8,9-hexahydro-1H-5,8-epiminocyclohepta[b]pyridine-10-carboxamide] | < 0.5
11 | N#Cc1cc(Cl)c(Cl)cc1NC(=O)N1[C@H]2CC[C@@H]1c1ccnc(F)c1C2 [Compound 98, (5R,8S)-N-(4,5-Dichloro-2-cyanophenyl)-1-fluoro-6,7,8,9-tetrahydro-5H-5,8-epiminocyclohepta[c]pyridine-10-carboxamide] | < 0.5
12 | COC(=O)c1ccc(NC(=O)N2[C@H]3CC[C@@H]2c2ccnc(F)c2C3)cc1Cl [Compound 122, Methyl 2-chloro-4-((5R,8S)-1-fluoro-6,7,8,9-tetrahydro-5H-5,8-epiminocyclohepta[c]pyridine-10-carboxamido)benzoate] | < 0.5
13 | COC(=O)c1cc(NC(=O)N2[C@H]3CC[C@@H]2c2ccnc(F)c2C3)ccc1Cl [Compound 123, Methyl 2-chloro-5-((5R,8S)-1-fluoro-6,7,8,9-tetrahydro-5H-5,8-epiminocyclohepta[c]pyridine-10-carboxamido)benzoate] | < 0.5
14 | Cc1ncoc1-c1ccc(NC(=O)N2[C@H]3CC[C@@H]2c2ccnc(F)c2C3)cc1 [Compound 187, (5R,8S)-1-Fluoro-N-(4-(4-methyloxazol-5-yl)phenyl)-6,7,8,9-tetrahydro-5H-5,8-epiminocyclohepta[c]pyridine-10-carboxamide] | 0.5 to 5

same assay, conditions: 1321N1-hrGPR65 cells, assay pH 7.2, cAMP HTRF; read-out: hGPR65 IC50 (activity class)

Row | Compound | IC50 [µM]
15 | O=C(Nc1ccc(Cl)c(Cl)c1)N1C2CCC1c1cnc(-c3ccccc3)nc1C2 (racemic) [Compound 26, (±)-N-(3,4-Dichlorophenyl)-2-phenyl-6,7,8,9-tetrahydro-5H-5,8-epiminocyclohepta[d]pyrimidine-10-carboxamide] | 0.5 to 5
16 | N#Cc1ccc(NC(=O)N2C3CCC2c2cncnc2C3)cc1Cl (racemic) [Compound 11, (±)-N-(3-chloro-4-cyanophenyl)-6,7,8,9-tetrahydro-5H-5,8-epiminocyclohepta[d]pyrimidine-10-carboxamide] | 0.5 to 5
17 | COc1ccc2c(c1)CC1CCC2N1C(=O)Nc1ccc(Cl)c(Cl)c1 (racemic) [Compound 56, (±)-N-(3,4-Dichlorophenyl)-2-methoxy-6,7,8,9-tetrahydro-5H-5,8-epiminobenzo[7]annulene-10-carboxamide] | 0.5 to 5
18 | O=C(Nc1ccc(C(F)(F)F)c(Cl)c1)N1C2CCC1c1cccc(F)c1C2 (racemic) [Compound 84, (±)-N-(3-Chloro-4-(trifluoromethyl)phenyl)-1-fluoro-6,7,8,9-tetrahydro-5H-5,8-epiminobenzo[7]annulene-10-carboxamide] | 0.5 to 5
19 | O=C(Nc1ccc(C(F)(F)F)c(Cl)c1)N1C2CCC1c1cnccc1C2 (racemic) [Compound 37, (±)-N-(3-Chloro-4-(trifluoromethyl)phenyl)-6,7,8,9-tetrahydro-5H-6,9-epiminocyclohepta[c]pyridine-10-carboxamide] | 0.5 to 5
20 | O=C(Nc1ccc(Cl)c(Cl)c1)N1[C@@H]2CC[C@H]1c1ccnc(F)c1C2 [Compound 110, (5S,8R)-N-(3,4-Dichlorophenyl)-1-fluoro-6,7,8,9-tetrahydro-5H-5,8-epiminocyclohepta[c]pyridine-10-carboxamide] | > 5
21 | O=C(Nc1ccc(Cl)c(Cl)c1)N1C2CCC1c1ccnc(Br)c1C2 (racemic) [Compound 148, (±)-1-Bromo-N-(3,4-dichlorophenyl)-6,7,8,9-tetrahydro-5H-5,8-epiminocyclohepta[c]pyridine-10-carboxamide] | 0.5 to 5
22 | O=C(Nc1ccc(Cl)c(Cl)c1)N1C2CCC1c1cnccc1C2 (racemic) [Compound 104, (±)-N-(3,4-Dichlorophenyl)-6,7,8,9-tetrahydro-5H-6,9-epiminocyclohepta[c]pyridine-10-carboxamide] | 0.5 to 5
23 | O=C(Nc1ccc(Cl)c(Cl)c1)N1C2CCC1c1c[n+]([O-])ccc1C2 (racemic) [Compound 59, (±)-10-((3,4-Dichlorophenyl)carbamoyl)-6,7,8,9-tetrahydro-5H-6,9-epiminocyclohepta[c]pyridine 2-oxide] | > 5
24 | O=C(Nc1ccc(OC(F)F)cc1)N1C2CCC1c1ccnc(F)c1C2 (racemic) [Compound 169, (±)-N-(4-(Difluoromethoxy)phenyl)-1-fluoro-6,7,8,9-tetrahydro-5H-5,8-epiminocyclohepta[c]pyridine-10-carboxamide] | 0.5 to 5
25 | O=C(Nc1ccc(C(F)(F)F)c(Cl)c1)N1C2CCC1c1ccccc1C2 (racemic) [Compound 54, (±)-N-(3-Chloro-4-(trifluoromethyl)phenyl)-6,7,8,9-tetrahydro-5H-5,8-epiminobenzo[7]annulene-10-carboxamide] | 0.5 to 5
26 | O=C(Nc1ccc(Cl)c(Cl)c1)N1C2CCC1c1cccc(F)c1C2 (racemic) [Compound 83, (±)-N-(3,4-Dichlorophenyl)-1-fluoro-6,7,8,9-tetrahydro-5H-5,8-epiminobenzo[7]annulene-10-carboxamide] | 0.5 to 5
